Measured values published in US9895363B2, “Methods for modulating function of proliferating cell nuclear antigen (PCNA) and treating cancer with PCNA-targeting compounds” (University of Cincinnati, priority 2010, dated 2018).

How the values were obtained:
B16 melanoma cells = assay: Growth inhibition by MTT staining, B16; type: cell-based; settings: B16, 96 h, Mouse, treated four days
Method: (§1) Growth inhibitory effects of PCNA-I1 and PCNA-I2 were assessed in human cancer cell lines, mouse cancer cell lines, immortalized mouse cell lines, and human primary cell lines. Specifically, growth inhibitory effects of PCNA-I1 and PCNA-I2 were assessed using MTT staining in the following cells lines: 1) human cancer cell lines including LNCaP (androgen receptor […]), 22Rv1, DU-145, LAPC-4, and PC-3 (androgen receptor […]) prostate cancer cells; MCF-7 and T47D breast cancer cells; A375 and MDA-MB435 melanoma cells; 2) mouse cancer cell lines including TRAMP-C2RE3 prostate cancer cells, B16 and K1735 melanoma cells, UV2237 fibrosarcoma cells, and CT-26 colon cancer cells; 3) immortalized mouse lung cell lines and mouse endothelial cell lines; and 4) primary human cell lines including umbilical endothelial cells (HUVEC, PromoCell, Heidelberg, Germany), primary bone marrow mesenchymal stem cells (HuMSC, PromoCell), primary human mammary epithelial cells (HuBrEC, Lonza, Walkersville, Md.), primary human prostate epithelial cells (HuPrEC, Lonza), and primary mouse spleen lymphocytes (isolated in this laboratory), and primary mouse bone marrow stromal cells (isolated in this laboratory). […]
(§2) IC50 values were derived from growth inhibition curves. […] Inhibition of cell growth was calculated using the formula: growth inhibition (%)=(1−A570 of treated/A570 of control)×100. […]

T47D breast cancer cells = assay: Growth inhibition by MTT staining, T47D; type: cell-based; settings: 96 h, Human tumor cells, treated four days
Method: as §1, §2

CT-26 colon cancer cells = assay: Growth inhibition by MTT staining, CT-26; type: cell-based; settings: CT26; Mouse tumor cells; cell line not given; read-out: IC50 Values, cell line cell blank (first row below UV2237)
Method: as §1, §2

A375 melanoma cells = assay: Growth inhibition by MTT staining, A375; type: cell-based; settings: A-375, 96 h, Human, treated four days
Method: as §1, §2

PC-3 cells = assay: Cell cycle distribution by flow cytometry, PC-3; type: cell-based, Human
Method: The effects of PCNA inhibitors on cell cycle progression were investigated via flow cytometry analysis. Specifically, PC-3 cells were plated into 60 mm plates at 2×10^5 cells/plate and were allowed to attach overnight.
The cells were rinsed with HBSS, detached by trypsinization, suspended in MEM-5% FBS, pelleted by centrifugation, resuspended in PI staining solution (PBS containing 50 μg/mL PI, 100 μg/mL RNase A, and 0.05% Triton X-100), and incubated for 45 min at 37° C. After washing with PBS, the cells were resuspended in PBS for flow cytometry analysis in an Epics-XL-MCL system (Beckman Coulter, Fullerton, Calif.). Thirty thousand cells at each time point were collected to determine their DNA content and to obtain flow cytometric fluorescence histograms (X-axis fluorescence, Y-axis cell number). The three fractions (G0/G1, G2/M and S) were quantified by using the Synchronization Wizard of ModFit LT Flow Cytometry Cell-cycle Analysis Softward (Verity Software House, Topsham, Me.).
Flow cytometry analysis was also performed on cells in which endogenous PCNA was knocked down with transfection of PCNA-specific siRNA. Specifically, PC-3 cells were plated into a 60-mm plate at 2×10^5/plate in antibiotics-free medium and transfected with 200 pmol PCNA specific siRNA or control scrambled siRNA for 24 H using Lifectamine 2000. The cells were then cultured in SFM for 24 H, followed by incubation in fresh SFM or stimulation with medium supplemented with 5% FBS, and sampled at different times for analyses. The PC-3 cells were also subjected to western blot analysis. Specifically, cells were washed and scraped into a lysis buffer (1% Triton X-100, 20 mM Tris-HCl, pH 8.0, 137 mM NaCl, 10% glycerol, 2 mM EDTA, 1 mM PMSF, and a protease inhibitor cocktail) and analyzed by Western blotting analysis as described by Zhang et al. in Tumor-infiltrating Macrophages are Involved in Suppressing Growth and Metastasis of Human Prostate Cancer Cells by INF-beta Gene Therapy in Nude Mice; Clin. Cancer Res. 2002; 8:29:2942-51. Samples were collected at 0 H (48 H after transfection), 24 H, 48 H, and 72 H, respectively.
Fluorescence-activated cell sorting (FACS) analysis was performed on both PC-3 cells and LNCaP cells using PCNA-I1. Specifically, cells were treated with 1 or 10 μM PCNA-I1 and sampled for the flow cytometry analysis at 24 H, 48 H, and 72 H. Expression of DNA damage and apoptosis-related proteins in PC-3 cells and LNCaP cells was also determined. Cisplatin, a well-known drug that induces DNA damage and apoptosis, was included in the experiment. LNCaP cells were treated for 6 H, 12 H, or 18 H with 10 μM PCNA-I1, 10 μM cisplatin, or both.

[1] = 1 μM, 5% FBS after serum starvation, FIGS. 4 and 5

Cc1ccsc1C(=O)N/N=C/c1ccc2ccccc2c1O [PCNA-I1]
IC50 (B16 melanoma cells): 350 nM | IC50 (T47D breast cancer cells): 150 nM | IC50 (CT-26 colon cancer cells): 130 nM | IC50 (A375 melanoma cells): 290 nM | Cells in G1 phase (PC-3 cells; 1 μM, 5% FBS after serum starvation, 24-72 H, FIGS. 4 and 5): partially attenuated the serum-stimulated G1 decrease at 24 H but led to significant G1 reductions at 48 H and 72 H | Cells in S phase (PC-3 cells; [1]): significantly increased at 24 H | G2/M fraction of cells (PC-3 cells; [1]): increased steadily at 48 H and 72 H | Cell cycle effect, PC-3, 1 μM (PC-3 cells; 1 μM, FIG. 15): cell growth arrest at S and G2/M phases | Cell cycle effect, PC-3, 10 μM (PC-3 cells; 10 μM, FIG. 15): more significant G1 arrest | Apoptosis, PC-3 (PC-3 cells; 1 or 10 μM, 24, 48, 72 H): Apoptosis was not observed
